Structures can show the parent of a compound that is named as a salt. Where two headings read alike, the source gives them in different places.

In assay [1] the target is T1, human α-thrombin (Homo sapiens, UniProt P00734).
T1 construct: purified human α-thrombin
In words: Enzyme assay for the inhibition of thrombin (s-2238 chromogenic substrate). The format is biochemical. To be noted: Table I, determined graphically from Dixon plots, room temperature, pH 7.4, substrate s-2238. The protocol: Enzyme Assays for the Inhibition of Thrombin The following reagents were used in these assays: […] Inhibitors to be tested were dissolved in H2 O, methanol, or DMSO just prior to use. To each well in a 96-well microtiter plate, 270 μl of assay buffer was added. […] The samples were incubated at room temperature for a defined period of time (3 minutes for initial IC50 determinations). The enzymatic reaction was started with 10 μl of 3 mM s-2238 substrate and continued at room temperature. The change in optical density was measured at 405 nm. A kinetic microplate reader (Molecular Devices Corporation .nu.max) was used to measure the change in optical density over time. Table I lists the Ki values for different compounds, Ki value is determined graphically from Dixon plots (plots of reciprocal enzyme velocity i/v vs. linear function of inhibitor concentration at various enzyme substrate concentrations). This methodology is well known in the art.

For assay [2], the target named is T1, human α-thrombin. Kind of assay: Concentration required for doubling thrombin clotting time (clotting time assay in human plasma). The format is biochemical. The settings on record: Table II; human citrated plasma, 10 U/ml human thrombin; read-out: DTT (concentration of drug which caused a doubling of the thrombin clotting time). The protocol: Procedure for Determining the Concentration Required for Doubling Thrombin Clotting Time--Clotting Time Assays
The following reagents were used in these assays:
The blood was centrifugated at […]. The plasma was removed, pooled, and aliquoted into small tubes which were stored frozen for later use.
Clotting times were determined by pipetting 0.1 ml of Owren's buffer (pre-warmed to 37° C.) and 0.1 ml of human or rat plasma into yellow sample cuvettes. For studies with human plasma 10 U/ml human thrombin (10 ml) was placed in the reservoir assembly station of the MLA 700. (Medical Laboratory Automation, Electra 700 Reservoir Assembly). For rat studies, the human thrombin concentration was 25 U/ml. The cuvettes were vortexed and then placed on the MLA 700 sample wheel. The coagulation timer (MLA 700) automatically dispenses 0.1 ml human thrombin into the sample in each cuvette. Detection of the fibrin clot was determined optically by the MLA 700.
Studies were performed to determine the concentration of drug which caused a doubling of the clotting time (DTT) in human plasma.

On to `CN(C)c1cccc2c(S(=O)(=O)NC(CCCNC(=N)C(=N)N)C(=O)N3CCCCC3)cccc12` (stereo not drawn) [Compound 7a, 1-[5-[(2-amino-1,2-diminoethyl)amino]-2-[[[5-(dimethylamino)-1-naphthalene]amino]-1-oxopentyl]piperidine hydrochloride], for which the Ki (in general, a dissociation constant, usually derived from enzyme kinetics or from competition with a known ligand) at human α-thrombin [1] (read-out: Ki) turned out to be 3.2 µM. On to `CC1CCN(C(=O)C(CCNC(=N)C(=N)N)NS(=O)(=O)c2cccc3c(N(C)C)cccc23)CC1` (stereo not drawn) [Compound 7b], for which the Ki at human α-thrombin [1] (read-out: Ki) was determined as 4 µM. On the same count and under the same terms, to `CC1CCN(C(=O)C(CCCNC(=N)C(=N)N)NS(=O)(=O)c2cccc3c(N(C)C)cccc23)CC1` (stereo not drawn) [Compound 7c, 1-[5-[(2-amino-1,2-diiminoethyl)amino]-2-[[[5-(dimethylamino)-1-naphthalenyl]sulfonyl]amino]-1-oxopentyl]-4-methylpiperidine trihydrochloride hydrate] belongs 0.33 µM; to `CCC1CCN(C(=O)C(CCCNC(=N)C(=N)N)NS(=O)(=O)c2cccc3c(N(C)C)cccc23)CC1` (stereo not drawn) [Compound 7d, 1-[5-[(2-amino-1,2-diiminoethyl)amino]-2-[[[5-(dimethylamino)-1-naphthalenyl]sulfonyl]amino]-1-oxopentyl]-4-ethylpiperidine trihydrochloride hydrate], 0.3 µM.

Take `CN(C)c1cccc2c(S(=O)(=O)NC(CCCNC(=N)C(=N)N)C(=O)N3CCOCC3)cccc12` (stereo not drawn) [Compound 7e, 1-[5-[(2-amino-1,2-diiminoethyl)amino]-2-[[[5-(dimethylamino)-1-naphthalenyl]sulfonyl]amino]-1-oxopentyl]morpholine trihydrochloride hydrate]: the IC (2-fold clotting time) on human α-thrombin [2] is 4 µM. In addition, the inhibition constant Ki on human α-thrombin [1] (read-out: Ki) came out at 2 µM. `CCCCN(CC(=O)OCC)C(=O)C(CCCNC(=N)C(=N)N)NS(=O)(=O)c1cccc2c(N(C)C)cccc12` (stereo not drawn) [Compound 7f, ethyl N-[5-[(2-amino-1,2-diiminoethyl)amino]-2-[[[5-(dimethylamino)-1-naphthalenyl]sulfonyl]amino]-1-oxopentyl]-N-butylglycinate trihydrochloride hydrate]: the Ki at human α-thrombin [1] (read-out: Ki) stood at 3 µM. For `CN(C)c1cccc2c(S(=O)(=O)NC(CCCNC(=N)C(=N)N)C(=O)N3CCCCCC3)cccc12` (stereo not drawn) [Compound 7g, 1-[5-(2-amino-1,2-diiminoethyl)amino]-2-[[[5-(dimethylamino)-1-naphthalenyl]sulfonyl]amino]-1-oxopentyl]homopiperidine trihydrochloride hydrate], the IC (2-fold clotting time) at human α-thrombin [2] came to 1.8 µM. Besides, the Ki on human α-thrombin [1] (read-out: Ki) is 0.4 µM.

As to `Cc1ccc(S(=O)(=O)NC(CNC(=N)C(=N)N)C(=O)N2CCCCC2)cc1` (stereo not drawn) [Compound 7h], the IC (2-fold clotting time) at human α-thrombin [2] was over 300 µM. Moreover, the inhibition constant (Ki) entry at human α-thrombin [1] is “insol”.

Take `Cc1ccc(S(=O)(=O)NC(CCNC(=N)C(=N)N)C(=O)N2CCCCC2)cc1` (stereo not drawn) [Compound 7i]: the Ki at human α-thrombin [1] (read-out: Ki) was 80 µM. Still for that read-out and setting: the same measure for `Cc1ccc(S(=O)(=O)NC(CCCNC(=N)C(=N)N)C(=O)N2CCCCC2)cc1` (stereo not drawn) [Compound 7j]: 16 µM. Regarding `Cc1ccc(S(=O)(=O)NC(CCCCNC(=N)C(=N)N)C(=O)N2CCCCC2)cc1` (stereo not drawn) [Compound 7k, 1-[6-[(2-amino-1,2-diiminoethyl)aminol]-2-[[(4-methylphenyl)sulfonyl]amino]-1-oxohexyl]piperidine dihydrochloride], at human α-thrombin [2], the IC (2-fold clotting time) came to 150 µM. For the same compound, the Ki at human α-thrombin [1] (read-out: Ki) is 55 µM. Turning to `Cc1ccc(S(=O)(=O)NC(CCCNC(=N)C(=N)N)C(=O)N2CCC(C)CC2)cc1` (stereo not drawn) [Compound 7l, 1-[5-[2-(amino-1,2-diiminoethyl)amino]-2-[[(4-methylphenyl)sulfonyl]amino]-1-oxopentyl]-4-methylpiperidine hydrochloride], the Ki on human α-thrombin [1] (read-out: Ki) came out at 18 µM.

Turning to `N=C(N)C(=N)NCCC(NC(=O)CNS(=O)(=O)c1ccc2ccccc2c1)C(=O)N1CCCCC1` (stereo not drawn) [Compound 7m], at human α-thrombin [1] (read-out: Ki), the inhibition constant Ki came out at 36 µM.

In the case of `N=C(N)C(=N)NCCCC(NC(=O)CNS(=O)(=O)c1ccc2ccccc2c1)C(=O)N1CCCCC1` (stereo not drawn) [Compound 7n], the Ki at human α-thrombin [1] (read-out: Ki) is over 50 µM.

Source of the values: US5248673A, “Bisamidine derivatives as thrombin inhibitors” (Bristol-Myers Squibb Co., priority 1992, dated 1993).
